In test [1] the test system is human subject with postmenopausal osteoporosis or low bone mass. The test can be described thus: treatment of human subject with osteoporosis, vertebral density by dual-energy photon absorptiometry. It is filed as in vivo. On the procedure:
A human subject weighing about 60 kg (132 lbs), suffering from postmenopausal osteoporosis, is treated by a method of this invention. Specifically, for two years, the enkephalin-degrading enzyme inhibitor DL-3-mercapto-2-benzylpropanoylglycine is administered orally, in a cyclical regimen, where each cycle consists of an active period of 28 days during which a tablet containing 160 mg of said inhibitor is administered each day, followed by a non-active period of 28 days during which the subject receives a daily supplement of calcium (1,000 mg/day), with repeat of cycle.
A human subject weighing about 60 kg (132 lbs), suffering from postmenopausal osteoporosis, is treated by a method of this invention. Specifically, for two years, the compound H-Tyr-D-Ala-Gly-Phe-D-Leu-OH ("DADLE") is administered to the subject, in a cyclical regimen, where each cycle consists of an active period of 28 days during which a solution containing 30 mg of DADLE is administered intravenously every day, followed by a non-active period of 28 days during which the patient receives a daily supplement of calcium (1,000 mg/day), with repeat of cycle.
A human subject weighing about 60 kg (132 lbs), suffering from postmenopausal osteoporosis, is treated by a method of this invention. Specifically, for two years, an enkephalin of the formula Tyr-D-Cys(S-t-butylthioether)-Gly-Phe-Leu-Thr(O-t-butylether) ("BUBUC") is administered to the subject, in a cyclical regimen, where each cycle consists of an active period of 28 days during which a solution containing 30 mg of BUBUC is intravenously administered each day, followed by a non-active period of 28 days during which the patient receives a daily supplement of calcium (1,000 mg/day), with repeat of cycle.
A human subject weighing about 60 kg (132 lbs), suffering from postmenopausal osteoporosis, is treated by a method of this invention. Specifically, for two years, the enkephalin secretagogue Tyr-Arg^1, is administered to the subject, in a cyclical regimen, where each cycle consists of an active period of 28 days during which a solution containing 30 mg of Tyr-Arg is intravenously administered each day, followed by a non-active period of 28 days during which the subject receives a daily supplement of calcium (1,000 mg/day), with repeat of cycle. […]
A human subject weighing about 60 kg (132 lbs), suffering from postmenopausal osteoporosis, is treated by a method of this invention. Specifically, each day for five years, the subject is administered 3 tablets, comprised as follows.
A human subject weighing about 60 kg (132 lbs) is evaluated approximately four years after spontaneous menopause, and is found to have low bone mass. The subject is then treated by a method of this invention to treat osteoporosis. Specifically, once each month for five years, the subject is administered, via intravenous injection, 5 ml of a solution comprised as follows.

Test [2] deals with Rat osteoblast-like cells (ROS 17/2.8). The test can be described thus: [3H]-thymidine incorporation, proliferation of osteoblast-like cells. Type of test: cell-based. The conditions noted are these: ROS 17/2.8, 18 hrs incubation, 2 hrs pulse. From the text: Stimulation of osteoblast-like cell proliferation can be measured according to several art-recognized in vitro models. One such model is described in European Patent Publication No. 384,731, by Rodan et al, published Aug. 29, 1990, which is incorporated herein by reference. (Applicants have modified this method by reducing regent volumes to one-quarter those described and by utilizing Dulbecco's Modified eagle's Medium (DMEM).) In this model, proliferation (division) of, for example, rat osteoblast-like cells (rat osteosarcoma (ROS) cells, rat calvaria cells, etc.) is observed by measuring the amount of radiolabeled thymidine ([^3 H]thymidine) incorporated by these cells. ([^3 H]thymidine is "incorporated" by cellular DNA being synthesized as a result of cell proliferation.) The greater the level of [^3 H]thymidine measured, the greater the amount of proliferation of the osteoblast cells.
More specifically, a test sample (comprised of a test compound and osteoblast-like cells) and a control sample (comprised of only osteoblast-like cells) are pulsed with [^3 H]thymidine. The amount of [^3 H]thymidine incorporated by the cells is measured using a direct beta counter.
Rat osteoblast-like cells (ROS 17/2.8) are plated at 4×10^3 cells/well in a 96-well plate in Dulbecco's Modified eagle's Medium supplemented with 2% (v/v) Fetal Bovine Serum, and incubated for 6 hrs. Control (serum-free) medium and test medium (test sample and serum-free medium) are then added to the cells and this combination is incubated for 18 hrs. The cells are then pulsed with [^3 H]-thymidine (1 μCi/well) for 2 hrs. The medium is then removed, the cells are harvested onto glass fibre filters and the amount of [^3 H]-thymidine (counts per minute per well) incorporated into DNA is then determined using a direct beta counter. Values for control groups are then compared to values for treated groups.
The compound H-Tyr-D-Ala-Gly-Phe-D-Leu-OH ("DADLE") is screened to determine whether it stimulates proliferation of osteoblast-like cells. […] The medium is then removed, the cells are harvested onto glass fibre filters, and the amount of ^3 H-thymidine (counts per minute per well) incorporated into DNA is determined using a direct beta counter. […]
The compound Tyr-D-Cys(S-t-butylthioether)-Gly-Phe-Leu-Thr(O-t-butylether) ("BUBUC") is screened to determine whether it stimulates proliferation of osteoblast-like cells. […] The medium is then removed, the cells are harvested onto glass fibre filters, and the amount of ^3 H-thymidine (counts per minute per well) incorporated into DNA is determined using a direct beta counter. […]
A general note: Incorporation of labelled thymidine or its analogues reports DNA synthesis.

In a further test the target is T1, delta opioid receptor (Cavia porcellus, UniProt A0A286XTF2).
T1 construct: A preferred source of delta opioid receptors is guinea pig brain; from tissue; host or cells: guinea pig brain
T1 sequence (A0A286XTF2 1-366): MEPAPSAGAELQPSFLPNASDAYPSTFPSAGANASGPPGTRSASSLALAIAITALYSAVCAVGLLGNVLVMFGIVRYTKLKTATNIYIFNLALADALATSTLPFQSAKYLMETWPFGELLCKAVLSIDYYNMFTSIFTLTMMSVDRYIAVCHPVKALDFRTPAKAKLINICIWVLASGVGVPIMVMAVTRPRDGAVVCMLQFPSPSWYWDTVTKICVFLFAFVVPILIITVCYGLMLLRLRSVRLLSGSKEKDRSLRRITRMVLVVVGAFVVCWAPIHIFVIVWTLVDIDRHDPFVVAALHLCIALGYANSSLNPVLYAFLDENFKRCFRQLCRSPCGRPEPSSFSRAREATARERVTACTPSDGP
The test can be described thus: inhibition of [3H]DPDPE binding, method of Goldstein et al. The conditions noted are these: radioligand [3H]DPDPE. Also on record: species or system guinea pig. From the text: Affinity for delta opioid receptors can be measured by any of several art-recognized in vitro models. One such model is described by Goldstein et al., and is discussed above. According to this model, a test compound is screened for its ability to inhibit binding of a delta-selective radiolabeled ligand ("delta-selective radiolabeled ligand" refers to a radiolabeled compound that is known to have selective affinity to delta opioid receptors) to delta opioid receptor binding sites. More specifically, this in vitro model compares test samples (comprising a delta-selective radiolabeled ligand ("hot ligand"); the non-radiolabeled equivalent to the "hot ligand" ("cold ligand"); test compound at varying concentrations in each test sample; and delta opiate receptor material) and a control sample (comprising hot ligand; cold ligand; and delta opiate receptor material).
Following the protocol set forth by Goldstein et al., the samples are assayed for relative radioactivity.
In assessing a compound's in vitro affinity for delta opioid receptors according to the method described by Goldstein et al., the delta-selectiveradiolabeled ligand ("hot ligand") is preferrably [^3 H]Tyr-D-Pen-Gly-Phe-D-Pen-OH ("[^3 H]-DPDPE"). The preferred "cold ligand" is therefore H-Tyr-D-Pen-Gly-Phe-D-Pen-OH ("cold DPDPE" or "DPDPE"). A preferred source of delta opioid receptors is guinea pig brain. […]

In another test the test system is osteoblast-like cells. Description: enkephalin secretion from osteoblast-like cells, RIA of immunoreactive enkephalin. It is filed as cell-based. The conditions noted are these: 48 hrs incubation. On the procedure:
In vitro release of enkephalin can be determined using any of several art-recognized in vitro models. One such model is described by Rosen et al., "Regulated Expression of Proenkephalin A in Normal Lymphocytes", 143 J. Immunol. 3703-07 (1989), which is incorporated herein by reference. In this model, "target cells" (preferably bone-derived cells, such as human osteoblast-like cells, rat calvaria cells, rat osteosarcoma cells, etc.) are incubated in tissue culture medium in the presence (test sample) and absence (control sample) of a test agent.
Osteoblast-like cells are incubated in tissue culture medium in the presence (test samples) and absence of the compound Tyr-Arg for 48 hrs. Peptides are extracted from packed cells by homogenization in 10 volumes of 0.2M HCl, heated to 100° C. for 3 min. and centrifuged at 15,000×g for 30 min. at 4° C. An aliquot of the resulting supernatant is purified on a C18 octadecyl Ampere minicolumn using a non-polar extraction procedure as recommended by the manufacturer of the columns. Another portion of the supernatant is lyophilized and reconstituted in 1.0 ml of 50 mM Tris-HCl (pH 8.0), 2 mM CaCl2 containing 20 µg/ml trypsin L-p-tosylamino-2-phenylethyl chloromethyl ketone. After trypsin digestion (2 hr at […]), samples are heated to 100° C. for 20 min., cooled and then treated with carboxypeptidaseB (0.2 μg/ml) for 1 hr. at 37° C. […]

[3] abbreviates: 30 mg intravenously daily (substitutes at comparable levels), 28 days active / 28 days calcium, two years.

Here are results for 2 molecules from patent US5403824A, “Methods for the treatment of osteoporosis” (The Procter & Gamble Company, priority 1993, dated 1995).

The structures appear in SMILES notation. Square brackets hold non-standard residues; d marks the D form. Peptide text beside a SMILES is read from it. * marks the point of attachment. tBu = CC(C)(C)*

As to `CC(C)C[C@H](NC(=O)[C@H](Cc1ccccc1)NC(=O)CNC(=O)[C@@H](CSC(C)(C)C)NC(=O)[C@@H](N)Cc1ccc(O)cc1)C(=O)N[C@H](C(=O)O)[C@@H](C)OC(C)(C)C` [BUBUC, Tyr-D-Cys(S-t-butylthioether)-Gly-Phe-Leu-Thr(O-t-butylether)] (H-Y[dC](tBu)GFLT(tBu)-OH), the “density of vertebrae / bone mass” value was “an increase in bone mass” in test [1] (setting [3]) and “no significant loss in bone mass has occurred” in test [1] (Example 8: 5 ml of 30.0 mg/ml solution i.v. once each month for five years). Also, the “[3H]-thymidine incorporation (proliferation) vs control” value in test [2] is recorded as “significantly stimulated proliferation of the osteoblast-like cells”. Besides, on delta opioid receptor, the “in vitro delta opioid receptor affinity (IC50 ≤1000 times the IC50 of non-radiolabeled DPDPE)” value is “significant in vitro delta opioid receptor affinity”.

`N=C(N)NCCC[C@H](NC(=O)[C@@H](N)Cc1ccc(O)cc1)C(=O)O` [Tyr-Arg]: the “density of vertebrae / bone mass” value in test [1] (setting [3]) is “an increase in bone mass”. Moreover, the “immunoreactive enkephalin, enkephalin secretion vs control” value in the test with osteoblast-like cells is given as “stimulates enkephalin secretion by osteoblast-like cells”. Moreover, the “[3H]-thymidine incorporation (proliferation) vs control” value in test [2] is recorded as “significantly stimulated proliferation of the osteoblast-like cells”.
